The target of assay [1] is T1, TDO2 (SW48 cells, high TDO expressing cells) (Homo sapiens, UniProt P48775).
T1 construct: SW48 cells (high TDO expressing cells); endogenous in cells; host or cells: SW48 cells
As to the kind of experiment: NFK GreenScreen cell assay, inhibition of TDO in SW48 cells. It is filed as cell-based. Conditions: read-out: TDO2 Cell Fluor EC50. The source says:
(§1) Cells are counted on a Vi-Cell (Beckman Coulter). […] The final DMSO concentration is 0.5%.

The target of assay [2] is T2, IDO1 (A172+IFNg cells, high IDO expressing cells) (Homo sapiens, UniProt P14902).
T2 construct: A172+IFNg cells (high IDO expressing cells); endogenous in cells; host or cells: A172 cells induced with 100 ng/ml IFNγ
T2 sequence (P14902 whole entry): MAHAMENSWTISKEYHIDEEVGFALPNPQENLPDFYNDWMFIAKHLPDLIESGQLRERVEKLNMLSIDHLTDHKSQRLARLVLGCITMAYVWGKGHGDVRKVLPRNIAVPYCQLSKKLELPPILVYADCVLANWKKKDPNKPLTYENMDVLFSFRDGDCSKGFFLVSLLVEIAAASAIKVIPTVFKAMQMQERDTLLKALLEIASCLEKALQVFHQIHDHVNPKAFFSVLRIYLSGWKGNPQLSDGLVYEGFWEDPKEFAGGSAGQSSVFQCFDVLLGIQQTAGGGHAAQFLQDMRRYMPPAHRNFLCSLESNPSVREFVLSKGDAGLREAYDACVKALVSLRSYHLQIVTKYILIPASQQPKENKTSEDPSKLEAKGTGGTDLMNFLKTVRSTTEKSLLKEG
As to the kind of experiment: NFK GreenScreen cell assay, inhibition of IDO in A172+IFNg cells. It is filed as cell-based. Conditions: read-out: IDO cell Fluor EC50.
Description: as §1

For orientation: EC50 means the concentration at which the effect is half-maximal.

T1 sequence (P48775 whole entry): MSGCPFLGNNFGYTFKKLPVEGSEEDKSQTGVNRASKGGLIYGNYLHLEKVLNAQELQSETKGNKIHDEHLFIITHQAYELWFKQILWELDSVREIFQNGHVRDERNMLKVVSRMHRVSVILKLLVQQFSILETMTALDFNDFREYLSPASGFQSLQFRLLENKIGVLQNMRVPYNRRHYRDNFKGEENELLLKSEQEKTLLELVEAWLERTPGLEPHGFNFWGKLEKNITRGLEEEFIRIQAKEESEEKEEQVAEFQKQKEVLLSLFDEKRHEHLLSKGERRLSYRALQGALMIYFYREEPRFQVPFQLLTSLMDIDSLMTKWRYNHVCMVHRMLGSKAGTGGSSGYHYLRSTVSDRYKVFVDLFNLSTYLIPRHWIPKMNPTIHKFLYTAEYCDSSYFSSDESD

In the case of `CC(=O)N1CCC(C(=O)N2CCC3(CC2)C[C@@H]([C@H]2c4ccccc4-c4cncn42)[C@H]3O)CC1` [compound 68, 1-[4-[3-hydroxy-2-(5H-imidazo[1,5-b]isoindol-5-yl)-7-azaspiro[3.5]nonane-7-carbonyl]-1-piperidyl]ethanone], the figures for the EC50 in assay [1] and in assay [2] were 5700 nM and 3400 nM, respectively.

As to `CC(NC=O)C(=O)N1CCC2(CC1)CC(C1c3ccccc3-c3cncn31)C2O` (centres unmarked) [compound 42, N-[2-[3-hydroxy-2-(5H-imidazo[1,5-b]isoindol-5-yl)-7-azaspiro[3.5]nonan-7-yl]-1-methyl-2-oxo-ethyl]formamide], the figures for the EC50 in assay [1] and in assay [2] were 4100 nM and 1100 nM, respectively.

With `CC(C)S(=O)(=O)N1CCC2(CC1)C[C@@H]([C@H]1c3ccccc3-c3cncn31)[C@H]2O` [compound 29, 2-(5H-imidazo[1,5-b]isoindol-5-yl)-7-isopropylsulfonyl-7-azaspiro[3.5]nonan-3-ol], the EC50 was found to be 240 nM in assay [1] and 59 nM in assay [2].

For the molecule `CC(C)(C)OC(=O)N[C@H]1CC[C@@]2(CC1)C[C@@H]([C@H]1c3ccccc3-c3cncn31)[C@@H]2O` (single isomer, unassigned) [Example 24b], the EC50 was determined as 2100 nM in assay [1] and 1300 nM in assay [2].

In the case of `NS(=O)(=O)N1CCC2(CC1)C[C@H]([C@H]1c3ccccc3-c3cncn31)[C@@H]2O` (single isomer, unassigned) [Example 11f], the figures for the EC50 in assay [1] and in assay [2] were 182 nM and 58.5 nM, respectively.

In the case of `NS(=O)(=O)N1CCC2(CC1)C[C@H]([C@H]1c3ccccc3-c3cncn31)[C@H]2O` (single isomer, unassigned) [Example 11g], the 50% effective concentration (EC50) in assay [1] stood at 930 nM; in assay [2], 4700 nM.

As for `O=C(CC1CCOCC1)N1CCC2(CC1)CC(C1c3ccccc3-c3cncn31)C2O` (centres unmarked) [compound 51, 1-[3-hydroxy-2-(5H-imidazo[1,5-b]isoindol-5-yl)-7-azaspiro[3.5]nonan-7-yl]-2-tetrahydropyran-4-yl-ethanone], the figures for the EC50 in assay [1] and in assay [2] were 220 nM and 390 nM, respectively.

Consider `O=C(c1cnn2c1OCCC2)N1CCC2(CC1)CC(C1c3ccccc3-c3cncn31)C2O` (centres unmarked) [compound 38, 6,7-dihydro-5H-pyrazolo[5,1-b][1,3]oxazin-3-yl-[3-hydroxy-2-(5H-imidazo[1,5-b]isoindol-5-yl)-7-azaspiro[3.5]nonan-7-yl]methanone], for which the results for the EC50 in assay [1] and in assay [2] were 2300 nM and 630 nM, respectively.

`O=C(CCc1cccnc1)N1CCC2(CC1)CC(C1c3ccccc3-c3cncn31)C2O` (centres unmarked) [compound 33, 1-[3-hydroxy-2-(5H-imidazo[1,5-b]isoindol-5-yl)-7-azaspiro[3.5]nonan-7-yl]-3-(3-pyridyl)propan-1-one]: the EC50 was determined as 840 nM in assay [1] and 490 nM in assay [2].

Take `CC(C)(C)OC(=O)N[C@H]1CC[C@@]2(CC1)C[C@H]([C@@H]1c3ccccc3-c3cncn31)[C@@H]2O` (single isomer, unassigned) [Example 24p]: the EC50 amounted to 3300 nM in assay [1] and 920 nM in assay [2].

For `CC(C)(C)OC(=O)N[C@H]1CC[C@]2(CC1)C[C@@H]([C@@H]1c3ccccc3-c3cncn31)[C@@H]2O` (single isomer, unassigned) [Example 24h], the EC50 in assay [1] was 16000 nM; in assay [2], 5400 nM.

`O=S(=O)(C1CCC1)N1CCC2(CC1)C[C@@H]([C@H]1c3ccccc3-c3cncn31)[C@H]2O` [compound 36, 7-cyclobutylsulfonyl-2-(5H-imidazo[1,5-b]isoindol-5-yl)-7-azaspiro[3.5]nonan-3-ol]: the EC50 is 150 nM in assay [1] and 35 nM in assay [2].

Turning to `CC(C)(C)OC(=O)N1CC2CCC(C1)C21C[C@@H]([C@@H]2c3ccccc3-c3cncn32)[C@@H]1O` (stereo partly drawn) [Example 22e, tert-butyl (2′S,3′S)-2′-hydroxy-3′-((R)-5H-imidazo[5,1-a]isoindol-5-yl)-3-azaspiro[bicyclo[3.2.1]octane-8,1′-cyclobutane]-3-carboxylate], the EC50 was 17000 nM in assay [1] and 8500 nM in assay [2].

Consider `CC(C)(C)OC(=O)N1CCC2(CC1)C[C@@H]([C@H]1c3ccccc3-c3cncn31)[C@H]2O` (single isomer, unassigned) [Example 1b], for which the EC50 in assay [1] worked out at 300 nM; in assay [2] it was 27.9 nM.

As to `CC(C)(C)OC(=O)N1CC2(CC[C@@H]([C@H]3c4ccccc4-c4cncn43)[C@@H]2O)C1` (single isomer, unassigned) [Example 3e], the EC50 in assay [1] was determined as 14000 nM; in assay [2], 7100 nM.

For `CC(C)(C)OC(=O)N1CC2CCC(C1)C21C[C@@H]([C@H]2c3ccccc3-c3cncn32)[C@H]1O` (single isomer, unassigned) [Example 22b], the concentration for a half-maximal effect (EC50) in assay [1] was 5000 nM; in assay [2], 12000 nM.

Consider `O=C(C(F)F)N1CCC2(CC1)CC(C1c3ccccc3-c3cncn31)C2O` (centres unmarked) [compound 69, 2,2-difluoro-1-[3-hydroxy-2-(5H-imidazo[1,5-b]isoindol-5-yl)-7-azaspiro[3.5]nonan-7-yl]ethanone], for which the values for the concentration giving a half-maximal response (EC50) in assay [1] and in assay [2] were 370 nM and 350 nM, respectively.

With `O=S(=O)(C1COC1)N1CCC2(CC1)CC(C1c3ccccc3-c3cncn31)C2O` (centres unmarked) [Example 23a, 2-(5H-imidazo[1,5-b]isoindol-5-yl)-7-(oxetan-3-ylsulfonyl)-7-azaspiro[3.5]nonan-3-ol], the EC50 was 330 nM in assay [1] and 150 nM in assay [2].

In the case of `CC(C)(C)OC(=O)N[C@H]1CC[C@@]2(CC1)C[C@H]([C@@H]1c3ccccc3-c3cncn31)[C@H]2O` (single isomer, unassigned) [Example 24a], the EC50 in assay [1] came out at 6900 nM; in assay [2], 4400 nM.

As to `O=S(=O)(C1COC1)N1CCC2(CC1)C[C@@H]([C@H]1c3ccccc3-c3cncn31)[C@H]2O` [Example 23c, (2S,3R)-2-[(5S)-5H-imidazo[1,5-b]isoindol-5-yl]-7-(oxetan-3-ylsulfonyl)-7-azaspiro[3.5]nonan-3-ol], the EC50 in assay [1] is 90 nM; in assay [2], 50 nM.

With `COCCC(=O)N1CCC2(CC1)C[C@@H]([C@H]1c3ccccc3-c3cncn31)[C@H]2O` [compound 47, 1-[3-hydroxy-2-(5H-imidazo[1,5-b]isoindol-5-yl)-7-azaspiro[3.5]nonan-7-yl]-3-methoxy-propan-1-one], the EC50 in assay [1] and in assay [2] was 850 nM throughout.

Regarding `CC(C)(C)OC(=O)N1[C@@H]2CC[C@H]1C[C@@]1(C[C@H]([C@@H]3c4ccccc4-c4cncn43)[C@@H]1O)C2` (single isomer, unassigned) [Example 12i], the EC50 in assay [1] amounted to 13000 nM; in assay [2], 5800 nM.

`Cc1nc(S(=O)(=O)N2CCC3(CC2)C[C@@H]([C@H]2c4ccccc4-c4cncn42)[C@H]3O)cn1C` [compound 30]: the EC50 in assay [1] worked out at 490 nM; in assay [2], 320 nM.

Consider `CC(=O)N(C)c1ccc(S(=O)(=O)N2CCC3(CC2)C[C@@H]([C@H]2c4ccccc4-c4cncn42)[C@H]3O)cc1` [compound 34, N-[4-[[3-hydroxy-2-(5H-imidazo[1,5-b]isoindol-5-yl)-7-azaspiro[3.5]nonan-7-yl]sulfonyl]phenyl]-N-methyl-acetamide], for which the EC50 is 480 nM in assay [1] and 32 nM in assay [2].

In the case of `O=S1(=O)CCC2(CC[C@H]([C@@H]3c4ccccc4-c4cncn43)[C@@H]2O)CC1` (single isomer, unassigned) [Example 13b], the EC50 in assay [1] amounted to 3300 nM; in assay [2] it was 7200 nM.

Turning to `CC(=O)N1CC2(CC[C@H]([C@@H]3c4ccccc4-c4cncn43)[C@H]2O)C1` (single isomer, unassigned) [Example 17], the EC50 in assay [1] is 670 nM; in assay [2] it was 1300 nM.

In the case of `NS(=O)(=O)N1CCC2(CC[C@@H]([C@H]3c4ccccc4-c4cncn43)[C@H]2O)CC1` (single isomer, unassigned) [Example 4c], the EC50 in assay [1] was found to be 4600 nM; in assay [2], 6200 nM.

Consider `CS(=O)(=O)N1CCC2(CC1)C[C@H]([C@H]1c3ccccc3-c3cncn31)[C@@H]2O` (single isomer, unassigned) [Example 6f], for which the EC50 in assay [1] was 120 nM; in assay [2], 24 nM.

`Cc1nn(C)c(C)c1S(=O)(=O)N1CCC2(CC1)CC(C1c3ccccc3-c3cncn31)C2O` (centres unmarked) [compound 27, 2-(5H-imidazo[1,5-b]isoindol-5-yl)-7-(1,3,5-trimethylpyrazol-4-yl)sulfonyl-7-azaspiro[3.5]nonan-3-ol]: the EC50 turned out to be 140 nM in assay [1] and 30 nM in assay [2].

For the molecule `NC(=O)N1CCCC(C(=O)N2CCC3(CC2)CC(C2c4ccccc4-c4cncn42)C3O)C1` (centres unmarked) [compound 64, 3-[3-hydroxy-2-(5H-imidazo[1,5-b]isoindol-5-yl)-7-azaspiro[3.5]nonane-7-carbonyl]piperidine-1-carboxamide], the figures for the EC50 in assay [1] and in assay [2] were 13000 nM and 17000 nM, respectively.

As for `CS(=O)(=O)N1CC2CCC(C1)C21CC(C2c3ccccc3-c3cncn32)C1O` (single isomer, unassigned) [compound 70, 3′(5H-imidazo[5,1-a]isoindol-5-yl)-3-(methylsulfonyl)-3-azaspiro[bicyclo[3.2.1]octane-8,1′-cyclobutan]-2′-ol], the EC50 in assay [1] amounted to 140 nM; in assay [2], 150 nM.

`CC(C)(C)OC(=O)N1[C@@H]2CC[C@H]1C[C@]1(C[C@@H]([C@H]3c4ccccc4-c4cncn43)[C@H]1O)C2` (single isomer, unassigned) [Example 12j]: the EC50 in assay [1] was 740 nM; in assay [2], 120 nM.

For the molecule `CC(C)(C)OC(=O)N1[C@@H]2CC[C@H]1C[C@]1(C[C@H]([C@@H]3c4ccccc4-c4cncn43)[C@H]1O)C2` (single isomer, unassigned) [Example 12g], the results for the EC50 in assay [1] and in assay [2] were 2100 nM and 4700 nM, respectively.

On to `NS(=O)(=O)N1CCC2(CC1)C[C@@H]([C@@H]1c3ccccc3-c3cncn31)[C@H]2O` (single isomer, unassigned) [Example 11e], for which the EC50 in assay [1] was determined as 12000 nM; in assay [2], 6800 nM.

For the origin of these results see patent US11603373B2, “TDO2 and IDO1 inhibitors” (Genentech, Inc., priority 2017, dated 2023).
